Results: publication PMC4460250, “Systems Pharmacology Dissecting Holistic Medicine for Treatment of Complex Diseases: An Example Using Cardiocerebrovascular Diseases Treated by TCM” (Evidence-based Complementary and Alternative Medicine : eCAM, 2015)
Read-outs that look alike come from different tables or passages of the source.

Assays:
PIM1 = PIM1 (Homo sapiens, UniProt P11309); test: PIM1 inhibition assay (ligand-binding assay, manufacturer's instructions); format: biochemical; conditions: Bliss method, three independent determinations, read-out: IC50 (μM): mean ± SD
[1] = Human intestinal absorption percentage values of the PreHIA data set (732 compounds, Table S2); conditions: class from HIA value
[2] = cited from earlier work
PTGS1 = molecular target: T1, PTGS1 (Ovis aries, UniProt P05979); test: PTGS1 inhibition assay (ligand-binding assay, manufacturer's instructions); format: biochemical; conditions: Bliss method, three independent determinations, read-out: IC50 (μM): mean ± SD
T1 sequence (P05979 25-600): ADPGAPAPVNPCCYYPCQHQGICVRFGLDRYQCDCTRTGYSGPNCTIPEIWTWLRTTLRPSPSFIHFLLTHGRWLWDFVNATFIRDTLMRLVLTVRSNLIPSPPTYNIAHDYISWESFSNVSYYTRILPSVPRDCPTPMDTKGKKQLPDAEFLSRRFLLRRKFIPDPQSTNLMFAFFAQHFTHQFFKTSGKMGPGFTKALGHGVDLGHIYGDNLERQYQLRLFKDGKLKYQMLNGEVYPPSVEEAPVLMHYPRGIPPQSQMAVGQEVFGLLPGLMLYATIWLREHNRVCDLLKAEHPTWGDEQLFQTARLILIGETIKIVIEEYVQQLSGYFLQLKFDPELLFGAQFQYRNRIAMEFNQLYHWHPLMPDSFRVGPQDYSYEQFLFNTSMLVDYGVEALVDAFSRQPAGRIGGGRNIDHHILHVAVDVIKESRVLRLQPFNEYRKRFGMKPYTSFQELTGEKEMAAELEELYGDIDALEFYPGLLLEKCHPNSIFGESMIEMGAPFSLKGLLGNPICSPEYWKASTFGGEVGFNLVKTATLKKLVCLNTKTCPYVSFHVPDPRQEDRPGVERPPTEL
Description: To validate the practicability and efficiency of above methods, the inhibitory effects of drugs on predicted targets were quantified by ligand-binding assays according to the manufacturer's instructions. The drug-target interactions were selected at random and readily available on the market, respectively. […] Targets PIM1 and PTGS1 were respectively purchased from Cayman Chemical, Ann Arbor, MI, USA and CycLex, Japan. The purity of all the compounds is >98%. All drugs were dissolved in DMS and freshly prepared due to loss of activity under long-term storage. IC50 values were determined using the Bliss method with three independent determinations.

[3] = human, PreHIA data set, value given as fraction

Chain of PIM1 (P11309 whole entry): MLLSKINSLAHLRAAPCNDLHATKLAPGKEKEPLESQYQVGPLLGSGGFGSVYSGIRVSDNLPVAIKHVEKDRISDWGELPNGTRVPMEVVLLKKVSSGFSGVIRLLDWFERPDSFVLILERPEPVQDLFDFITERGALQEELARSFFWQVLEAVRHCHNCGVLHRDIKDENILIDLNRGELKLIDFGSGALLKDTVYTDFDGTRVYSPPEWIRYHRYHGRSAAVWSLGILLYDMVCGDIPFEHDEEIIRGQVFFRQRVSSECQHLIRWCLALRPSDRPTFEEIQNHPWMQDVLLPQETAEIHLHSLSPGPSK

SMILES	IC50 (PIM1) [µM]	Class(High: HIA value ≥0.7; Low: HIA value < 0.7) [1]	HIA(Human Intestinal Absorption) [2, 3]	HIA(Human Intestinal Absorption) ([2]; in vivo)	IC50 (PTGS1) [µM]
O=c1c(O[C@@H]2O[C@H](CO)[C@@H](O)[C@H](O)[C@H]2O)c(-c2ccc(O)cc2)oc2cc(O)cc(O)c12 [Astragalin]	62 ± 9.7	–	–	–	–
CCCN(CCC)CCc1cccc2c1CC(=O)N2 [Ropinirole]	–	High (High: HIA value ≥0.7)	0.98	–	–
CN1C(C(=O)Nc2ccccn2)=C(O)c2sc(Cl)cc2S1(=O)=O [Lornoxicam]	–	High (High: HIA value ≥0.7)	1	–	–
Cn1nnc2c(C(N)=O)ncn2c1=O [Temozolomide]	–	High (High: HIA value ≥0.7)	1	–	–
Cc1ccc(Cl)c(Nc2ccccc2C(=O)O)c1Cl [Meclofenamic_acid]	–	High (High: HIA value ≥0.7)	1	–	–
CCOC(=O)C1=C[C@@H](OC(CC)CC)[C@H](NC(C)=O)[C@@H](N)C1 [Oseltamivir]	–	High (High: HIA value ≥0.7)	0.75	–	–
NC(=O)N1C(=O)/C(=C(\O)c2cccs2)c2cc(Cl)ccc21 [Tenidap]	–	High (High: HIA value ≥0.7)	–	0.89	–
COCCOc1cnc(NS(=O)(=O)c2ccccc2)nc1 [Glymidine]	–	High (High: HIA value ≥0.7)	0.95	–	–
C[N+]1(CCCCC[N+]2(C)CCCC2)CCCC1 [Pentolinium]	–	Low (Low: HIA value < 0.7)	0.05	–	–
CCc1[nH]c(=O)[nH]c1C(=O)c1ccncc1 [Piroximone]	–	High (High: HIA value ≥0.7)	0.8	–	–
O=C(O)[C@H]1/C(=C/CO)O[C@@H]2CC(=O)N21 [Clavulanic_acid]	–	High (High: HIA value ≥0.7)	0.75	–	–
CCCOC(C(=O)OC1CCN(C)CC1)(c1ccccc1)c1ccccc1 [Propiverine]	–	High (High: HIA value ≥0.7)	0.84	–	–
N=C(N)NC(=O)Cc1c(Cl)cccc1Cl [Guanfacine]	–	High (High: HIA value ≥0.7)	1	–	–
CN1CCC(=C2c3ccccc3C=Cc3ccccc32)CC1 [Cyproheptadine]	–	High (High: HIA value ≥0.7)	0.8	–	–
CCOC(=O)C1=C(C)NC(C)=C(C(=O)OCC)C1c1ccccc1/C=C/C(=O)OC(C)(C)C [Lacidipine]	–	High (High: HIA value ≥0.7)	0.98	–	–
C#C[C@]1(O)CC[C@H]2[C@@H]3CCC4=CCCC[C@@H]4[C@H]3CC[C@@]21C [Lynestrenol]	–	High (High: HIA value ≥0.7)	1	–	–
O=C(c1ccc(F)cc1)C1CCN(CCn2c(=O)[nH]c3ccccc3c2=O)CC1 [Ketanserin]	–	High (High: HIA value ≥0.7)	1	–	–
Clc1ccc2c(c1)C(N1CCNCC1)=Nc1ccccc1O2 [Amoxapine]	–	High (High: HIA value ≥0.7)	0.95	–	–
C[N+]1(C)CCC(=C(c2ccccc2)c2ccccc2)CC1 [Diphemanil]	–	Low (Low: HIA value < 0.7)	0.07	–	–
COc1cc(C)c([S+](C)[O-])cc1OC (centres unmarked) [Tolmesoxide]	–	High (High: HIA value ≥0.7)	0.98	–	–

SMILES	IC50 (PIM1) [µM]	Class(High: HIA value ≥0.7; Low: HIA value < 0.7) [1]	HIA(Human Intestinal Absorption) [2, 3]	HIA(Human Intestinal Absorption) ([2]; in vivo)	IC50 (PTGS1) [µM]
C=C[C@H]1C[N@@]2CC[C@H]1C[C@@H]2[C@@H](O)c1ccnc2ccccc12 [Cinchonine]	–	High (High: HIA value ≥0.7)	1	–	–
Oc1ccc(C(O)C2CCCCN2)cc1O (centres unmarked) [Rimiterol]	–	Low (Low: HIA value < 0.7)	0.48	–	–
CNS(=O)(=O)CCc1ccc2[nH]cc(C3CCN(C)CC3)c2c1 [Naratriptan]	–	High (High: HIA value ≥0.7)	0.7	–	–
C[N+](C)(C)CC(O)CC(=O)[O-] (centres unmarked) [Carnitine]	–	Low (Low: HIA value < 0.7)	0.1	–	–
CSc1ccc2ncn(/C=C/C(=O)O)c(=O)c2c1 [Tiacrilast]	–	High (High: HIA value ≥0.7)	0.99	–	–
CCCc1cc(C(N)=S)ccn1 [Protionamide]	–	High (High: HIA value ≥0.7)	0.9	–	–
COc1ccc2cc(CCC(C)=O)ccc2c1 [Nabumetone]	–	High (High: HIA value ≥0.7)	0.8	–	–
NS(=O)(=O)c1cc(-c2nnn[nH]2)c(NCc2cccs2)cc1Cl [Azosemide]	–	Low (Low: HIA value < 0.7)	0.1	–	–
C[C@@H]1O[C@@H](OC[C@H]2O[C@@H](Oc3c(-c4ccc(O)c(O)c4)oc4cc(O)cc(O)c4c3=O)[C@H](O)[C@@H](O)[C@@H]2O)[C@H](O)[C@H](O)[C@H]1O [Rutin]	57 ± 5.8	–	–	–	–
CN1CCC(=C2c3ccccc3CC(=O)c3sccc32)CC1 [Ketotifen]	–	High (High: HIA value ≥0.7)	0.9	–	–
O=c1c(O[C@@H]2O[C@H](CO)[C@@H](O)[C@H](O)[C@H]2O)c(-c2ccc(O)cc2)oc2cc(O)cc(O)c12 [Kaempferol-3-glucoside]	–	–	–	–	74
CN(Cc1cc(Br)cc(Br)c1N)C1CCCCC1 [Bromhexine]	–	High (High: HIA value ≥0.7)	0.7	–	–
C[C@H]([C@](O)(Cn1cncn1)c1ccc(F)cc1F)S(C)(=O)=O [Genaconazole]	–	High (High: HIA value ≥0.7)	1	–	–
CN(C)CCC=C1c2ccccc2COc2ccccc21 [Doxepin]	–	High (High: HIA value ≥0.7)	1	–	–
CC(C)NCC(O)COc1ccc(CCNC(=O)NC(C)C)cc1 (centres unmarked) [Pafenolol]	–	Low (Low: HIA value < 0.7)	0.29	–	–
O=c1[nH]c2ccccc2n1CCCN1CCN(C(c2ccccc2)c2ccccc2)CC1 [Oxatomide]	–	High (High: HIA value ≥0.7)	1	–	–
CCO[C@@H](Cc1ccc(OCCc2ccc(OS(C)(=O)=O)cc2)cc1)C(=O)O [Tesaglitazar]	–	High (High: HIA value ≥0.7)	1	–	–
O=P(O)(O)C(O)(Cc1cccnc1)P(=O)(O)O [Risedronic_acid]	–	Low (Low: HIA value < 0.7)	0.01	–	–
CN1C[C@H](C(=O)N[C@]2(C)O[C@@]3(O)[C@@H]4CCCN4C(=O)[C@H](Cc4ccccc4)N3C2=O)C[C@@H]2c3cccc4[nH]cc(c34)C[C@H]21 [Dihydroergotamine]	–	Low (Low: HIA value < 0.7)	0.35	–	–
CC(=O)N1CCN(c2ccc(OCC3COC(Cn4ccnc4)(c4ccc(Cl)cc4Cl)O3)cc2)CC1 (centres unmarked) [Ketoconazole]	–	High (High: HIA value ≥0.7)	0.75	–	–
